Assay results taken from ChEMBL document CHEMBL5230157, “The natural anthraquinone dye purpurin exerts antibacterial activity by perturbing the FtsZ assembly” (Bioorg Med Chem, 2021).
Calls of active or inactive are those of the source. The calls are words filed in the database; no cut-off is given here.

Experiments:
[1] = molecular target: T1, Cell division protein FtsZ (Bacillus subtilis) (UniProt A5Z1V5); experiment: Inhibition of Bacillus subtilis 168 FtsZ assessed as decrease FtsZ ring at mid bacterial cells at 7 uM for 4 hrs by immunostaining based fluorescent microscopy
T1 sequence (whole entry): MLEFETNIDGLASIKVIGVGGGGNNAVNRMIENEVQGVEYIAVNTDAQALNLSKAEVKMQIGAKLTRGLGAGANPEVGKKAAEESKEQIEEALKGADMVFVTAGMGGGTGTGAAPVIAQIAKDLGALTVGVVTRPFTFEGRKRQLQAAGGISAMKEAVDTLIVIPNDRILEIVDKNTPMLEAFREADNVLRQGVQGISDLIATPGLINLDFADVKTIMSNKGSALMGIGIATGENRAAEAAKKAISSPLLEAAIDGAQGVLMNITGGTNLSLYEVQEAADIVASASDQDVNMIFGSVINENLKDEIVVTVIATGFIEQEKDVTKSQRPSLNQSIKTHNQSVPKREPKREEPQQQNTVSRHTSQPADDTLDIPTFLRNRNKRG

Tubulin (Homo sapiens) = Tubulin (Homo sapiens) (UniProt P68371+Q9H4B7+P0DPH7+P68366+Q13509+Q71U36+P04350+Q3ZCM7+P07437+P68363+Q9BQE3+Q6PEY2+Q13885+Q9BVA1+Q9BUF5); experiment: Inhibition of tubulin polymerization in human HeLa cells assessed as effect on interphase microtubule network at 80 to 150 uM for 24 hrs by […] staining based fluorescence microscopy; type: cell-based; conditions: dose 80-150 µM
HeLa [2] = experiment: Antiproliferative activity against human HeLa cells assessed as inhibition of cell proliferation incubated for 24 hrs by sulfo-rhodamine B assay; type: functional, cell-based
HeLa [3] = experiment: Antiproliferative activity against human HeLa cells assessed as inhibition of cell proliferation at 200 uM incubated for 24 hrs by sulforhodamine B assay; type: functional; design: scale not given: the % may be the effect or the level left
Bacillus subtilis [4] = experiment: Antibacterial activity against Bacillus subtilis 168 assessed as fold increase in average cell length at 7 uM incubated for 4 hrs by fluorescent microscopy; type: functional
HeLa [5] = experiment: Antiproliferative activity against human HeLa cells assessed as inhibition of cell proliferation at 300 uM incubated for 24 hrs by sulforhodamine B assay; type: functional; design: scale not given: the % may be the effect or the level left
Bacillus subtilis [6] = experiment: Antibacterial activity against Bacillus subtilis 168 assessed as increase in average cell length at 7 uM incubated for 4 hrs in 82% of bacterial cells by fluorescent microscopy; type: functional
[7] = molecular target: T2, Cell division protein FtsZ (Escherichia coli K-12) (UniProt P0A9A6); experiment: Binding affinity to Escherichia coli BL21 FtsZ assessed as hydrophobic probe ANS-FtsZ complex fluorescence quenching at 40 uM for 30 mins by fluorescence analysis
T2 sequence (whole entry): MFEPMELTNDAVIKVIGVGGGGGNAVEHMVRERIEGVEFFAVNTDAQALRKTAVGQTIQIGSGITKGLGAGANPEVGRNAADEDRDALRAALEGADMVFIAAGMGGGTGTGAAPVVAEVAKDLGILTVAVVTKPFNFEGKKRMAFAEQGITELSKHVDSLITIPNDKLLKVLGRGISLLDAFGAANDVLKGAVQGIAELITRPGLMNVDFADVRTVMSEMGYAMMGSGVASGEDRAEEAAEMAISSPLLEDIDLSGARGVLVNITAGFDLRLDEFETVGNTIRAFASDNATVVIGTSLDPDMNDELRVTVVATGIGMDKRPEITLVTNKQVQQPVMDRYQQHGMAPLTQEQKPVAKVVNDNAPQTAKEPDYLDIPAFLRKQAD

[8] = molecular target: T2, Cell division protein FtsZ (Escherichia coli K-12); experiment: Inhibition of KCl-induced Escherichia coli BL21 FtsZ polymerization assessed as decrease in FtsZ polymer average length at 80 uM incubate for 1 hrs by […] staining based fluorescence microscopy
[9] = molecular target: T2, Cell division protein FtsZ (Escherichia coli K-12); experiment: Inhibition of KCl-induced Escherichia coli BL21 FtsZ polymerization assessed as decrease in FtsZ polymer thickness at 80 uM incubate for 1 hrs by […] staining based fluorescence microscopy
HeLa [10] = experiment: Antiproliferative activity against human HeLa cells assessed as inhibition of cell proliferation at 50 uM incubated for 24 hrs by sulforhodamine B assay; type: functional; design: scale not given: the % may be the effect or the level left
Bacillus subtilis [11] = experiment: Antibacterial activity against Bacillus subtilis 168 assessed as increase in average cell length at 7 uM incubated for 4 hrs in 69% of bacterial cells by fluorescent microscopy; type: functional
[12] = molecular target: T2, Cell division protein FtsZ (Escherichia coli K-12); experiment: Inhibition of Escherichia coli BL21 FtsZ assessed as inhibition of KCl-induced GTPase activity at 20 uM preincubated for 10 mins followed by KCl stimulation and measured after 10 mins by malachite green ammonium molybdate dye based spectroscopic analysis; conditions: time 20.0 min
[13] = molecular target: T1, Cell division protein FtsZ (Bacillus subtilis); experiment: Inhibition of Bacillus subtilis PL642 GFP-tagged FtsZ assessed as effect on nucleoid segregation at 7 uM for 4 hrs by immunostaining based fluorescent microscopy
HeLa [14] = experiment: Antiproliferative activity against human HeLa cells assessed as inhibition of cell proliferation at 100 uM incubated for 24 hrs by sulforhodamine B assay; type: functional; design: scale not given: the % may be the effect or the level left
[15] = molecular target: T2, Cell division protein FtsZ (Escherichia coli K-12); experiment: Binding affinity to Escherichia coli BL21 FtsZ assessed as hydrophobic probe ANS-FtsZ complex fluorescence quenching at 10 uM for 30 mins by fluorescence analysis
Escherichia coli [16] = experiment: Antibacterial activity against Escherichia coli XL1 assessed as bacterial growth inhibition at 30 uM by spectrophotometric method; type: functional; conditions: read-out: GI
Bacillus subtilis [17] = experiment: Antibacterial activity against Bacillus subtilis 168 assessed as increase in average cell length at 7 uM incubated for 4 hrs in 45% of bacterial cells by fluorescent microscopy; type: functional
[18] = molecular target: T2, Cell division protein FtsZ (Escherichia coli K-12); experiment: Binding affinity to Escherichia coli BL21 FtsZ assessed as hydrophobic probe ANS-FtsZ complex fluorescence quenching at 20 uM for 30 mins by fluorescence analysis
[19] = molecular target: T2, Cell division protein FtsZ (Escherichia coli K-12); experiment: Inhibition of Escherichia coli BL21 FtsZ assessed as inhibition of KCl-induced GTPase activity at 5 uM preincubated for 10 mins followed by KCl stimulation and measured after 10 mins by malachite green ammonium molybdate dye based spectroscopic analysis; conditions: time 20.0 min
Escherichia coli [20] = experiment: Antibacterial activity against Escherichia coli XL1 assessed as bacterial growth inhibition at 10 uM by spectrophotometric method; type: functional; conditions: read-out: GI
[21] = molecular target: T3, Cell division protein FtsZ (Bacillus subtilis, UniProt A5Z1V5); experiment: Binding affinity to Bacillus subtilis FtsZ assessed as dissociation constant of intrinsic tryptophan quenching incubated for 30 mins by double reciprocal plot analysis
T3 sequence (A5Z1V5 whole entry): T1 sequence (whole entry)

[22] = molecular target: T4, Cell division protein FtsZ (Escherichia coli K-12, UniProt P0A9A6); experiment: Binding affinity to Escherichia coli BL21 FtsZ assessed as dissociation constant of hydrophobic probe ANS-FtsZ complex fluorescence quenching incubated for 30 mins by double reciprocal plot analysis
T4 sequence (P0A9A6 whole entry): T2 sequence (whole entry)

[23] = molecular target: T2, Cell division protein FtsZ (Escherichia coli K-12); experiment: Inhibition of KCl-induced Escherichia coli BL21 FtsZ polymerization at 40 uM incubate for 10 min followed by KCl stimulation by spectrofluorimeter based light-scattering assay
[24] = molecular target: T2, Cell division protein FtsZ (Escherichia coli K-12); experiment: Binding affinity to Escherichia coli BL21 FtsZ assessed as hydrophobic probe ANS-FtsZ complex fluorescence quenching at 5 uM for 30 mins by fluorescence analysis

Activity [1]: Active
inhibition (Tubulin (Homo sapiens)): inactive
IC50 (HeLa [2]): 110 µM
Activity [7]: 66%
inhibition [8]: Active
inhibition [9]: Active
inhibition [12]: 15.9%
Activity [13]: inactive
Activity [15]: 35%
Activity [18]: 45%
inhibition [19]: 11.5%
Kd [21]: 5.2 µM
Kd [22]: 11 µM
inhibition [23]: 31%
Activity [24]: 25%
Compound: O=C1c2ccccc2C(=O)c2c(O)c(O)cc(O)c21 [PURPURIN]
Activity (HeLa [3]): 72%
fold change (FC) (Bacillus subtilis [4]): 10
Activity (HeLa [5]): 89%
Activity (Bacillus subtilis [6]): 20.1 um
Activity (HeLa [10]): 28%
Activity (Bacillus subtilis [11]): 15.1 um
Activity (HeLa [14]): 45%
inhibition of growth at 30 µM (Escherichia coli [16]): 25.6%
Activity (Bacillus subtilis [17]): 10.1 um
inhibition of growth at 10 µM (Escherichia coli [20]): 12.5%
